# Test results as given in patent US12391646B2, “Using adiponectin receptor agonists to treat inflammation and bone diseases in diabetes” (Trustees of Tufts College, priority 2020, dated 2025).
# Tests used:
# AdipoRs = settings: cited from earlier work
# RAW 264.7 cells = test: CCK-8 cell viability assay, Example 2; settings: 2 days, compared with vehicle-treated group
# Protocol: RAW 264.7 cells were treated with receptor activator of nuclear factor KB ligand (RANKL) (100 ng/ml) for 2 days with or without AdipoRon (20 μM) or AdipoAI (5 μM) for another 2 days. […] (C) The CCK-8 analysis of RAW 264.7 cells treated with 20 μM AdipoRon or 5 μM AdipoAI for 48 h. (D) The CCK-8 analysis of RAW 264.7 cells' proliferation at different doses of APR and AdipoAI. Cells were treated with 100 ng/ml RANKL for 2 days with or without AdipoRon (5, 20 μM) or AdipoAI (5, 20 μM) every 2 days for 4 days. […] Data are shown as mean±SD., compared with the vehicle-treated group, *P<0.05. **P<0.01. ***P<0.001.
# RAW 264.7 cells (2×10^3 cells/well) were seeded in 96-well plates and treated with or without AdipoRon or AdipoAI for 48 hours in a humidified chamber at 37° C. in 5% CO2 and air. Cell viability was determined with the Cell Counting Kit-8 (CCK-8 kit, Dojindo, Santa Clara, CA, USA) following the manufacturer's recommendations. Briefly, CCK-8 solution (10 μL) was added to each well and cells were incubated in dark for 3 hours. Cell viability was determined by measuring the absorbance at 450 nm.
# [1] = cited from earlier work
# APPL1/MyD88 interaction = test: Co-immunoprecipitation of AdipoR1, APPL1 and MyD88 in Raw264.7 cells; assay type: cell-based; settings: AdipoAI (5 μM) and LPS-treated cells compared to control cells
# Protocol: FIG. 6 Involvement of APPL1/MyD88 interaction in the anti-inflammatory effects of AdipoAI in macrophages. (a) RAW 264.7 cells were transfected with siRNA targeting MyD88, c-Maf or scrambled control siRNA for 24 h, followed by stimulation with LPS for 6 h. Transfection efficiency of siRNA and mRNA expression levels of proinflammatory cytokines were measured by qPCR and normalized with GAPDH mRNA levels. Data were expressed as the mean±SEM at five biological independent experiments. One-way ANOVA test for multiple-group comparisons, * vs. LPS+Scrambled group, *P<0.05, significant differences between each indicated group. ns, not significant. (b) Raw264.7 cells were transfected with siRNA targeting MyD88 or scrambled control siRNA for 24 h, followed by stimulation with LPS for 30 min for measurement of related proteins. Representative images are shown along with β-actin as an internal loading control and densitometric analysis. Densitometry values-MyD88: 1.00, 0.24, 1.20, 0.33; pIRAK4: 1.00, 0.00; p-P38: 1.00, 0.11. […] Proteins immunoprecipitated with the anti-MyD88 antibody were analyzed by immunoblotting with antibodies for MyD88, APPL1, and AdipoR1. […]
# The RAW 264.7 macrophages were seeded at a density of 6×10^6 cells per 100 mm dish. […] The immunoprecipitates were washed with lysis buffer and further analyzed by polyacrylamide gel electrophoresis and Western blot analyses. […]
# [2] = tested on: LPS-induced Raw264.7 cells; test: ELISA of IL-6 and IL-1β in supernatants of LPS-induced Raw264.7 cells; assay type: cell-based; settings: AdipoAI 5 μM 24 h then LPS 6 h
# Protocol: FIG. 2 AdipoAI suppresses LPS-stimulated inflammatory responses in macrophages. (a) Raw264.7 cells or (b) BMMs were pretreated with APR (20 μM) or AdipoAI (5 μM) for 24 h followed by incubation with LPS (100 ng/mL) for additional 6 h for the measurement of IL-6 and IL-1β in supernatants by ELISA. Data were expressed as the mean±SEM at five biological independent experiments. One-way ANOVA test for multiple-group comparisons, * vs. LPS group, *P<0.05, significant differences between each indicated group. (c) PEMs were isolated from C57BL/6J mice (n=5 mice/group) were injected i.p. with ImL 4% thioglycolate solution or AdipoAI (25 mg/kg) for the measurement of IL-6 and IL-1β. The amounts of IL-6 and IL-1β in supernatant were measured by ELISA. Data were expressed as the mean±SEM (n=5). Two-tailed Student's t-test for two groups, *P<0.05, significant differences between each indicated group. (d-f) Impact of AdipoAI on basal (d) and LPS-induced expression of an array of proinflammatory cytokines, chemokines, and receptors (e,f) in Raw264.7 cells (4 groups and 3 biological replicates/group). Data analyses were performed according to the manufacturer's instructions with their web-based software package (www.qiagen.com/us/shop/genes-and-pathways/data-analysis-center overview-page/). […]
# [3] = tested on: AdipoR1/2 mRNA expression; test: qRT-PCR of AdipoR1/2 mRNA in Raw264.7 cells; assay type: cell-based; settings: 24 h
# Protocol: FIG. 10 Raw264.7 cells were treated with different doses of AdipoAI for 24 h to measure AdipoR1/2 mRNA expression by qRT-PCR. Data were expressed as the mean±SEM at five biological independent experiments. One-way ANOVA test for multiple-group comparisons, * vs. control group. *P<0.05, significant differences between each indicated group.
# Total RNA of cells was extracted using Quick-RNA Miniprep Kit (ZYMO Research, Irvine, CA, USA) and total RNA from mouse tissues was prepared with TriZol reagent (Life Technologies) according to the manufacturer's instructions followed by qRT-PCR assays as described previously (L. Zhang et al., 2014). 1 μg of total RNA was used for reverse transcription using the M-MLV Reverse Transcriptase (Thermo Scientific, Waltham, MA, USA) according to the manufacturer's protocol using PowerUp SYBR Green Master Mix (Thermo Scientific) on a Bio-Rad iQ5 thermal cycler (Bio-Rad Laboratories, Hercules, CA, USA). Differences in expression were evaluated by the comparative cycle threshold method using GAPDH or β-actin as a control. The primer sequences used for the qRT-PCR experiments are listed in supplemental Table 1.
# [4] = tested on: LPS-stimulated bone marrow-derived macrophages (BMMs); test: qRT-PCR of IL-6 and IL-1β mRNA in LPS-stimulated BMMs; assay type: cell-based, C57BL/6J mice; settings: AdipoAI 5 μM compared with compound 5 (5 μM) and APR (20 μM)
Structure (SMILES),binding affinity for AdipoRs (AdipoRs),number of RAW 264.7 cells (CCK-8) at 20 μM (RAW 264.7 cells),solubility [1],interaction of APPL1 with MyD88 (Co-IP) (APPL1/MyD88 interaction),IL-6 and IL-1β protein levels (ELISA) [2],mRNA levels of AdipoRs [3],inhibition of LPS-stimulated IL-6 and IL-1β expression in BMMs [4]
"O=C(COc1ccc(C(=O)c2ccccc2)cc1)NC1CCN(Cc2ccccc2)CC1 [AdipoRon, reference compound]",low binding affinity for AdipoRs,did not reduce the number of RAW 264.7 cells,relatively low solubility,–,–,–,–
COc1ccc(CN2CCC(NC(=O)COc3ccc(C(=O)c4ccc(Cl)cc4)cc3)CC2)cc1 [Compound 3],–,–,–,the interaction of APPL1 with MyD88 was increased,decreased IL-6 and IL-1β protein levels,increased the mRNA levels of AdipoRs,strongest inhibitory effects
